Results: ChEMBL document CHEMBL5335778, “Bench-to-bedside: Innovation of small molecule anti-SARS-CoV-2 drugs in China” (Eur J Med Chem, 2023)

Assays:
Ebolavirus = experiment: Antiviral activity against EBOV infected in human Huh-7 cells assessed as reduction in viral replication; type: functional, organism-based; conditions: Orthoebolavirus
[1] = system: Respiratory syncytial virus; experiment: Antiviral activity against Respiratory syncytial virus; type: functional, organism-based; conditions: human respiratory syncytial virus
[2] = Selectivity index, ratio of CC50 for cytotoxicity against human HEp-2 cells to IC50 for antiviral activity against RSV A2 infected in human HEp-2 cells
SARS-CoV [3] = experiment: Antiviral activity against SARS-CoV infected in Vero E6 cells assessed as reduction in viral replication measured after 48 hrs by qRT-PCR assay; type: functional, organism-based; conditions: Severe acute respiratory syndrome-related coronavirus, Vero C1008, 48 h
[4] = system: Middle East respiratory syndrome-related coronavirus; experiment: Antiviral activity against MERS-CoV infected in HAE cells; type: functional, organism-based
in vitro = conditions: monkey, Vero E6 cells
SARS-CoV-2 [5] = experiment: microbe, parasite or virus in culture; conditions: Severe acute respiratory syndrome coronavirus 2, Vero C1008
[6] = biological target: T1, Human immunodeficiency virus type 1 reverse transcriptase (Human immunodeficiency virus 1, UniProt Q72547); experiment: Inhibition of HIV-1 reverse transcriptase associated RNA-dependent DNA polymerase
SARS-CoV-2 [7] = experiment: Antiviral activity against SARS-CoV-2 Omicron assessed as reduction of viral growth; type: functional, organism-based; conditions: Severe acute respiratory syndrome coronavirus 2, Omicron
SARS-CoV-2 [8] = experiment: Antiviral activity against SARS-CoV-2 B.1.1.7 Alpha infected in human Calu-3 cells assessed as inhibition of viral infection preincubated for 1 hr followed by viral infection measured after 48 hrs by Hoechst 33342 staining based analysis; type: functional, organism-based; conditions: Severe acute respiratory syndrome coronavirus 2, B.1.1.7, Calu-3
SARS-CoV-2 [9] = experiment: Antiviral activity against SARS-CoV-2 […] infected in human 293TA cells assessed as reduction of viral growth measured after 48 hrs by luciferase assay; type: functional, organism-based; conditions: Severe acute respiratory syndrome coronavirus 2, 293TA
SARS-CoV-2 [10] = experiment: Antiviral activity against SARS-CoV-2 […] B.1.617.2 delta infected in human 293TA cells assessed as reduction of viral growth measured after 48 hrs by luciferase assay; type: functional, organism-based; conditions: Severe acute respiratory syndrome coronavirus 2, 293TA
[11] = biological target: Hepatitis C virus NS5B RNA-dependent RNA polymerase (Hepatitis C virus, UniProt Q8JXU8); experiment: Inhibition of Hepatitis C virus NS5B polymerase; parameters: species or system Hepacivirus hominis
[12] = biological target: T1, Human immunodeficiency virus type 1 reverse transcriptase; experiment: Inhibition of wild type HIV-1 reverse transcriptase
[13] = system: Human immunodeficiency virus 2; experiment: Antiviral activity against HIV-2 D194 infected in PBMC assessed as inhibition of viral growth; type: functional, organism-based; conditions: Human immunodeficiency virus 2, D194, PBMC
[14] = biological target: Human immunodeficiency virus type 1 protease (Human immunodeficiency virus 1, UniProt Q72874); experiment: Inhibition of HIV-1 protease
SARS-CoV-2 [15] = experiment: Antiviral activity against SARS-CoV-2 infected in African green monkey Vero E6 cells expressing TMPRSS2 assessed as reduction in virus-induced cytopathic effect measured after 48 hrs by cellular ATP assay; type: functional, organism-based; conditions: Severe acute respiratory syndrome coronavirus 2, Vero C1008, 48 h
SARS-CoV [16] = experiment: Antiviral activity against SARS-CoV-1 infected in African green monkey Vero E6 cells expressing TMPRSS2; type: functional, organism-based; conditions: Severe acute respiratory syndrome-related coronavirus, Vero C1008
[17] = Oral bioavailability in rat; type: ADME, organism-based; conditions: in vivo
[18] = system: Human immunodeficiency virus 1; experiment: Antiviral activity against HIV-1 3B infected in human MT4 cells assessed as reduction in virus-induced cytopathic effect incubated for 5 days by MTT assay; type: functional, organism-based; conditions: Human immunodeficiency virus 1, 3B, MT4, 120 h
[19] = Cytotoxicity against human MT4 cells assessed as reduction in cell viability treated for 5 days by MTT assay; type: toxicity, cell-based; conditions: time 5 day
Human coronavirus OC43 = experiment: Antiviral activity against HCoV-OC43; type: functional, organism-based; conditions: Betacoronavirus 1
SARS-CoV-2 [20] = experiment: Antiviral activity against SARS-CoV-2 assessed as inhibition of viral replication; type: functional, organism-based; conditions: Severe acute respiratory syndrome coronavirus 2
[21] = Oral bioavailability in beagle dog at 2 mg/kg; type: ADME, organism-based, Canis lupus familiaris; conditions: in vivo

Sequence of Hepatitis C virus NS5B RNA-dependent RNA polymerase (Q8JXU8 whole entry): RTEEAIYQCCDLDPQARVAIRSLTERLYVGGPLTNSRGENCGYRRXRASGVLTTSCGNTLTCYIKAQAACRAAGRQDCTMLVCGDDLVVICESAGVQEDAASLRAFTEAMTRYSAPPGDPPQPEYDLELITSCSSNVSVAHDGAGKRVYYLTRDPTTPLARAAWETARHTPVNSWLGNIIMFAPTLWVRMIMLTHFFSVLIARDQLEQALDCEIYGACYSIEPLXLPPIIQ

Work on `CCC(CC)COC(=O)[C@H](C)N[P@](=O)(OC[C@H]1O[C@@](C#N)(c2ccc3c(N)ncnn23)[C@H](O)[C@@H]1O)Oc1ccccc1` yielded an EC50 (Ebolavirus) of 12 nM, an EC50 [1] of 21 nM and a selectivity ratio [2] of 395. The EC50 (SARS-CoV [3]) was 69 nM, the EC50 [4] was 25 nM and the selectivity ratio (in vitro) was greater than 100. It also gave an EC50 (SARS-CoV-2 [5]) of 770 nM.

`C[C@@]1(O)[C@H](O)[C@@H](CO)O[C@H]1n1ccc(N)nc1=O` gave an IC50 [6] of 1050 nM.

Work on `O=C[C@H](C[C@@H]1CCNC1=O)NC(=O)[C@H](CC1CCCCC1)NC(=O)c1cc2ccccc2[nH]1` yielded an EC50 (SARS-CoV-2 [7]) of 33 nM, an EC50 (SARS-CoV-2 [8]) of 390 nM and an EC50 (SARS-CoV-2 [9]) of 280 nM. The EC50 (SARS-CoV-2 [10]) was 270 nM.

Work on `CC(C)(C)[C@H](NC(=O)C(F)(F)F)C(=O)N1C[C@H]2[C@@H]([C@H]1C(=O)N[C@H](C#N)C[C@@H]1CCNC1=O)C2(C)C` yielded an EC50 (SARS-CoV-2 [7]) of 33 nM, an EC50 (SARS-CoV-2 [8]) of 820 nM and an EC50 (SARS-CoV-2 [9]) of 490 nM. The EC50 (SARS-CoV-2 [10]) was 780 nM.

Work on `O=C[C@H](C[C@@H]1CCNC1=O)NC(=O)[C@H](Cc1ccccc1)NC(=O)c1cc2ccccc2[nH]1` yielded an EC50 (SARS-CoV-2 [7]) of 33 nM.

Compound `[N-]=[N+]=N[C@]1(CO)O[C@@H](n2ccc(N)nc2=O)[C@@H](O)[C@@H]1O` has an IC50 [11] of 1280 nM, an EC50 [12] of 0.03 nM and an EC50 [13] of 0.018 nM. It also gave an IC50 [14] of 171 nM.

For `[2H][C@](C(=O)N[C@@H](C)c1ccc(F)cc1)(c1cccnc1)N(C(=O)C(C)=O)c1ccc2c(c1)oc1ccccc12`, the EC50 (SARS-CoV-2 [7]) was 33 nM.

In the case of `O=C(NCc1cccs1)[C@@H]1CN(C(=O)c2cccnc2)CCN1c1ccc(Cl)c(Cl)c1`, the EC50 (SARS-CoV-2 [7]) is reported as 33 nM.

`Cn1cnc(Cn2c(=O)[nH]/c(=N\c3cc4cn(C)nc4cc3Cl)n(Cc3cc(F)c(F)cc3F)c2=O)n1` showed an EC50 (SARS-CoV-2 [15]) of 350 nM and an EC50 (SARS-CoV [16]) of 1900 nM.

In the case of `O=C[C@H](C[C@@H]1CCNC1=O)NC(=O)[C@@H]1[C@H]2CCC[C@H]2CN1C(=O)CCc1cc(F)cc(F)c1`, the EC50 (SARS-CoV-2 [7]) is reported as 33 nM.

Compound `[2H]c1cc([C@]2(C#N)O[C@H](COC(=O)C(C)C)[C@@H](OC(=O)C(C)C)[C@H]2OC(=O)C(C)C)n2ncnc(N)c12` has a bioavailability [17] of 49.9%, an EC50 [18] of 350 nM and a CC50 at 120 h [19] of 280000 nM.

`[N-]=[N+]=N[C@]1(COP(=O)(O)OP(=O)(O)OP(=O)(O)O)O[C@@H](n2ccc(N)nc2=O)[C@@H](F)[C@@H]1O` gave an EC50 [12] of 0.03 nM, an EC50 [13] of 0.018 nM and an EC50 (Human coronavirus OC43) of 4300 nM. For the same compound, the EC50 (SARS-CoV-2 [20]) was 1200 nM and the bioavailability [21] was 82.7%.
